Assay [1] has as its system AddAB (StrepII-AddA and His6-AddB). Briefly: Recombinant AddAB pulldown with compound-functionalized Sepharose. The assay is classed as binding. The note with it: E. coli lysate co-expressing StrepII-AddA and His6-AddB, Western blot. The text has this:
A SOS reporter system was generated by transformation of JE2 cells with a plasmid containing GFP under control of the recA promoter. Activation of the SOS response in these cells results in expression of GFP which can be monitored by fluorescence intensity. […] This decrease is indicative of inhibition of the SOS response during cell death, and consistent with the proposed inhibition of AddAB-mediated DNA repair pathways. Finally, to provide additional evidence that inhibition of the bacterial DNA repair pathway by IMP-1700 (10) occurred through inhibition of AddAB, a target pulldown was conducted. IMP-1700 (10) was coupled with N-Boc-ethylenediamine to afford amide 19, followed by removal of the Boc group in 4 M HCl/dioxane and purification using strong cation exchange resin. The resulting free amine 20 was coupled to N-hydroxysuccinimide (NHS)-activated Sepharose resin at 4 °C overnight (Figure 2C), and the remaining NHS sites quenched in Tris buffer. SoluBL21 competent E. coli were transformed with pET28b^+ containing StrepII-tagged AddA and hexahistidine-tagged AddB, and expression induced overnight at 16 °C. Cells were lysed via sonication and the total lysate incubated with IMP-1700 (10)-functionalized or control Sepharose beads which had been treated with DMSO then Tris-quenched. Beads were washed three times with lysis buffer and bound protein eluted with SDS-PAGE sample buffer, followed by PAGE separation. […]
agar (LA) supplemented with kanamycin (50 μg/mL). Liquid cultures were grown at 37 °C with shaking at 180 r.p.m until an OD600 of 0.5 was reached, at which point cultures were cooled to 16 °C. Protein expression was induced by addition of isopropyl β-D-thiogalactoside (1 mM), followed by incubation for 20 h at 16 °C with shaking. Cells were collected by centrifugation (4,000 × g, 5 min) and stored at -20 °C.
Cells were re-suspended in lysis buffer (50 mM Tris-HCl, 150 mM NaCl, pH 7.5) and lysed on ice by sonication (2 min, 5 s on-off cycle, 40% amplitude) using a Vibra-cell sonicator (Sonics). […]
For orientation: Immunoblotting shows a protein as a band on a membrane.

In assay [2] the test system is S. aureus SH1000. Briefly: MIC / growth inhibition assay (end-point OD600), single agent. In kind it is cell-based. Particulars: Staphylococcus aureus, SH1000, 18 h, end-point OD600 after 18 h, read-out: EC50 S. aureus (SH1000) Compound only. The text has this: Minimum inhibitory concentration (MIC) assays were used to evaluate the antimicrobial activity of compounds against Gram-negative (E. coli) and Gram-positive (S. aureus) bacteria. […] Gram-positive bacteria are more susceptible to small-molecule penetration, and compounds were therefore assessed for growth inhibition against the S. aureus SH1000 strain.
2.1. Biological and biochemical methods
Bacterial strains and culture conditions
Strains utilized in the present study are detailed in Table S1. All strains used were cultivated on Mueller Hinton Agar (MHA) and grown to stationary-phase in Mueller Hinton Broth (MHB) at 37 °C for 16 h, with shaking at 180 r.p.m.
Minimum inhibitory concentration (MIC) assays
MIC assays were performed in 96 well plates and MICs were determined in accordance with the broth microdilution protocol.4 Strains grown to stationary-phase in MHB were adjusted to 5 x 10^5 colony-forming units (CFU)/mL in fresh MHB (100 µL/well) supplemented with DMSO to ensure a constant concentration of 0.5% (v/v) DMSO across all experiments. Where […]
or H2O2 (200 μM). Test compounds were prepared as two-fold serial dilutions. Cells were […]
as the lowest concentration with no visible bacterial growth, and the optical density at 600 nm (OD600) was recorded. OD600 measurements were background corrected against no-inocula control and normalized to DMSO control for dose-response analysis. The EC50 value mean and SEM were calculated from individual EC50 values from three biological replicates. […]

Entries after “also recorded” stand apart in the source; their conditions may differ.

Take `O=C(O)c1cn(C2CC2)c2cc(N3CCN(C(=S)Nc4ccc(C(F)(F)F)cc4)CC3)c(F)cc2c1=O` [Compound 10]: the “Pulldown of AddA and AddB by compound-functionalized Sepharose” value in assay [1] was “allows co-isolation of the complex”; in assay [1] (listed as IMP-1700) it was “both AddA and AddB subunits were pulled down; also recorded: successfully pulled down”. Moreover, the EC50 in assay [2] amounted to 210 ± 30 nM.

In general, EC50 refers to the concentration at which the effect is half-maximal.

Source of the values: publication PMC6892255, “Identification of a potent small-molecule inhibitor of bacterial DNA repair that potentiates quinolone antibiotic activity in methicillin-resistant Staphylococcus aureus^” (Bioorganic & Medicinal Chemistry, 2019).
